The target in assay [1] is T1, Cytoplasmic tyrosine-protein kinase BMX (Homo sapiens, UniProt P51813).
T1 sequence (P51813 whole entry): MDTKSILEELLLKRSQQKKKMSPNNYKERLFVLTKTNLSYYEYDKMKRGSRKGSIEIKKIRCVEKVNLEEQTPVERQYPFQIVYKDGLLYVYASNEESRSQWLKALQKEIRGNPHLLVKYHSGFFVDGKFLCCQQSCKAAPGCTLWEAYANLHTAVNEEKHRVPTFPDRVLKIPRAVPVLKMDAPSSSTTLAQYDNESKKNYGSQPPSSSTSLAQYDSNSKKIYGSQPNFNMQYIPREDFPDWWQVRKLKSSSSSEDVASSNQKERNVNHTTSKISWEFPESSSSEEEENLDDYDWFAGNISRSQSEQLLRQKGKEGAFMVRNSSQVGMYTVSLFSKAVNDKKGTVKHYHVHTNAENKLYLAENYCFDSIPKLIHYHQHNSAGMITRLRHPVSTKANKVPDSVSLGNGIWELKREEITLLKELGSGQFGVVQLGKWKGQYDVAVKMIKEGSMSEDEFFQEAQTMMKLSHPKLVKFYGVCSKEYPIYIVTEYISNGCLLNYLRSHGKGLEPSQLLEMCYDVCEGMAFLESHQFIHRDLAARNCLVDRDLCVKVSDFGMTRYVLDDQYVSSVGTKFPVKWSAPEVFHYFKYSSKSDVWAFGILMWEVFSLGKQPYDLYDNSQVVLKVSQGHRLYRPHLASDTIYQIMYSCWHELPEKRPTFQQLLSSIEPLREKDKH
The assay is described as follows: Inhibition of full-length recombinant human His-tagged BMX expressed in baculovirus expression system by Z'-LYTE assay.

Assay [2] deals with Tyrosine-protein kinase BTK (Homo sapiens, UniProt Q06187). The assay is described as follows: Inhibition of full-length recombinant human His-tagged BTK expressed in baculovirus expression system by Z'-LYTE assay.
Tyrosine-protein kinase BTK, sequence (Q06187 whole entry): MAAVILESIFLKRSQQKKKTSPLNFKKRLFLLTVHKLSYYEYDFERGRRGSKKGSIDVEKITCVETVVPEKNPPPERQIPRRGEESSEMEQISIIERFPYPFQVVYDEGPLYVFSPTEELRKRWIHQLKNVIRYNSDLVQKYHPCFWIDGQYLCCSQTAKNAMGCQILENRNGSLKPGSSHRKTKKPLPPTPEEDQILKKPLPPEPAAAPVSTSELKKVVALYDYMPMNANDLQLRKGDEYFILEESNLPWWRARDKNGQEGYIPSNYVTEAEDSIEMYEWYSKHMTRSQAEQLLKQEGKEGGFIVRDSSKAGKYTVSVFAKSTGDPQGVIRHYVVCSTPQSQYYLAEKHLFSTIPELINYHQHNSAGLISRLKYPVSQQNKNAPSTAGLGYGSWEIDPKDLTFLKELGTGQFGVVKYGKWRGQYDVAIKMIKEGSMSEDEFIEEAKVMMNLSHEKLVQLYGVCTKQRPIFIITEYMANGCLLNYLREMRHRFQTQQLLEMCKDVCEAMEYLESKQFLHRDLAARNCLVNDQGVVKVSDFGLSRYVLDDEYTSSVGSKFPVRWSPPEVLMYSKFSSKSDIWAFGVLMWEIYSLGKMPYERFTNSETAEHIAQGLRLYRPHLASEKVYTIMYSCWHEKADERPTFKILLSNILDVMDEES
Assay [3] addresses T2, Calcium/calmodulin-dependent protein kinase type IV (Homo sapiens, UniProt Q16566).
T2 sequence (Q16566 whole entry): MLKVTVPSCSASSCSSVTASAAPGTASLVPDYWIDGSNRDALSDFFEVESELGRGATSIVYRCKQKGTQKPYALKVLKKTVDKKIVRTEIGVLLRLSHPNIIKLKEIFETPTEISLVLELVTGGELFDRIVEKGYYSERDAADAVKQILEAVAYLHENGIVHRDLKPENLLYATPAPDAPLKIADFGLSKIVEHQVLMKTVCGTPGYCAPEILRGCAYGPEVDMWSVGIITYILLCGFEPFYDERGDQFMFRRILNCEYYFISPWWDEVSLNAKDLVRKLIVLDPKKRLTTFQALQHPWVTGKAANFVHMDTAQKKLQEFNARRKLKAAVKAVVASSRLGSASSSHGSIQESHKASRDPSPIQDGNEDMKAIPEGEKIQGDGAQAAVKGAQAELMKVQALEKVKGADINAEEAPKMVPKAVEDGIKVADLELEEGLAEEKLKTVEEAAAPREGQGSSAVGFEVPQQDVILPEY
The experiment in a line: Inhibition of full-length recombinant human GST-tagged CAMK4 expressed in Escherichia coli by Z'-LYTE assay.

Assay [4] addresses T3, Tyrosine-protein kinase JAK3 (Homo sapiens, UniProt P52333).
T3 sequence (P52333 whole entry): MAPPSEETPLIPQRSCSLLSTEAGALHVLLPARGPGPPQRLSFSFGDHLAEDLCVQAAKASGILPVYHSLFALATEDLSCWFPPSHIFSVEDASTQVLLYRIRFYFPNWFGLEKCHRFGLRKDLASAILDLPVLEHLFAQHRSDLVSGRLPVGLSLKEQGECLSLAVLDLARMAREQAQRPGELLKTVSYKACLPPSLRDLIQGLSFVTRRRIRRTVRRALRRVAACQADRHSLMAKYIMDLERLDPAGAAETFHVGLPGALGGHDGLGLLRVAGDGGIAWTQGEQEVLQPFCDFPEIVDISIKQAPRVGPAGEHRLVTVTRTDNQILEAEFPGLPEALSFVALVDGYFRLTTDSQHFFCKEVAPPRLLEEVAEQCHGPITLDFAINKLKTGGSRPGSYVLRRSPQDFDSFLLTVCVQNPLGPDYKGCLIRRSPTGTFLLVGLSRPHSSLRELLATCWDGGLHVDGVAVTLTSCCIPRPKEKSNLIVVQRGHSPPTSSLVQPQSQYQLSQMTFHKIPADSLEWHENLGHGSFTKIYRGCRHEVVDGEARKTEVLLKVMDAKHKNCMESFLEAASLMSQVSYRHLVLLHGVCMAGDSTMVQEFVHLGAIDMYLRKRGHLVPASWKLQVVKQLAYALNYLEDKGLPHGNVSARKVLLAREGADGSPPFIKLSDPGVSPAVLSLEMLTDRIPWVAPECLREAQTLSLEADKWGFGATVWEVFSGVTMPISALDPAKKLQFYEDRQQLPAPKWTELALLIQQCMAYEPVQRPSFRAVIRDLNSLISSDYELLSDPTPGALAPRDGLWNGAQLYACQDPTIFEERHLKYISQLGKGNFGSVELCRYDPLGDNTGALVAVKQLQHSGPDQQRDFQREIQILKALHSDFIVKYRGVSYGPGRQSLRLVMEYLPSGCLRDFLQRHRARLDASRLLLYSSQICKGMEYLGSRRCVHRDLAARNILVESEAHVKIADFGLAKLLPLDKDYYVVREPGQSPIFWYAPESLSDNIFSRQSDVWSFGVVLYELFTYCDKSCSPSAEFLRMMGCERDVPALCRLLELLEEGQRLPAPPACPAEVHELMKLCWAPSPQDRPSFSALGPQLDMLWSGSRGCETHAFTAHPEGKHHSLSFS
The assay is described as follows: Inhibition of recombinant human GST-tagged JAK3 catalytic domain expressed in baculovirus expression system by Z'-LYTE assay.

In general, IC50 refers to the midpoint of a concentration-inhibition curve. For `Cn1cc(-c2cnc3c(-c4csc(C(=O)NCC(F)(F)F)c4)cnn3c2)cn1`, the IC50 is 270 nM in assay [1], 360 nM in assay [2], greater than 100000 nM in assay [3] and 430 nM in assay [4].
`Cc1sc(C(=O)N[C@@H]2[C@H](N)CCCC2(F)F)cc1-c1cnn2cc(Cl)cnc12`: the IC50 in assay [1] stood at 9800 nM; in assay [2] it was 13000 nM; in assay [3], 29000 nM; in assay [4] it was 1300 nM.
Taken in the same sequence, the figures for `O=C(NCC(F)(F)F)c1cc(-c2cnn3cc(-c4ccc(OCCN5CCCCC5)cc4)cnc23)cs1` were 410 nM, 290 nM, 55000 nM and 280 nM.
For `Cn1cc(-c2cnc3c(-c4csc(C(=O)N[C@@H]5CCCC[C@@H]5N)c4)cnn3c2)cn1` (racemic), the IC50 is 3.5 nM in assay [1], less than 1 nM in assay [2], greater than 10000 nM in assay [3] and 33 nM in assay [4].
